For 106 compounds, Kd results are on record in PubChem BioAssay AID608 (Sanford-Burnham Center for Chemical Genomics, 2007).

pKd: −log10 of the molar value. Calls of active or inactive are those of the source. How the calls were made is not given here.

As usually defined, the Kd is a measure of binding affinity in units of concentration. What is called pKd is −log10 of the Kd, conventionally taken in molar units.

Sequence of Peptidyl-prolyl cis-trans isomerase FKBP1A (Homo sapiens) (P62942 whole entry, looked up): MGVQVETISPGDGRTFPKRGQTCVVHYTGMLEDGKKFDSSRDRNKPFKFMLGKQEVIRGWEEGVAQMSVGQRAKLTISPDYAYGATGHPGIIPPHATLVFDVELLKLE

This assay concerns the target Peptidyl-prolyl cis-trans isomerase FKBP1A (Homo sapiens) (UniProt P62942). Briefly: small-molecule binding to FKBP12 – biophysical, NMR detection (AID 608). The settings on record: purified FKBP12.
Regarding `Cc1ccc(C(C)C)c(OCCNC(=O)c2ccccc2OCC(=O)N2CCOCC2)c1`, the Kd entry was “inactive”. On the same count and under the same terms, next, `Cc1cc(C(=O)c2c(C)nn(C)c2Cl)n(C)n1`: > 4 mM (inactive); `O=C(O)CNC(=O)c1ccccc1`: > 4 mM (inactive); `O=C(Nc1ccccc1N1CCCC1)c1cccnc1`: > 4 mM (inactive). On the same count and under the same terms, the result for `COc1c2ccoc2cc2oc(=O)ccc12` reads > 4 mM (inactive); that for `O=c1c(-c2ccc(O)cc2)coc2cc(O)ccc12`, > 4 mM (inactive); that for `O=C(Nc1ccncc1)c1cncc(Br)c1`, > 4 mM (inactive). Same read-out and setting: the result for `CN1CCn2c1nc(N1CCCCC1)nc2=O` reads > 4 mM (inactive).

In the case of `O=C(NCc1cccs1)c1ccncc1`, the Kd was > 4 mM (inactive). On the same count and under the same terms, the result for `Nc1n[nH]c(=S)n1-c1ccccc1` reads > 4 mM (inactive); that for `NC(=O)c1ccc2c(c1)OCO2`, > 4 mM (inactive). The same measure, in the same setting: next, `C[C@@H]1CC[C@@]23CCC4(C)[C@@](C=CC5[C@@]6(C)CC[C@H](O)C(C)(C)C6CC[C@]54C)(OC2=O)C3[C@H]1C` (stereo partly specified): > 4 mM (inactive); `CC(C)(C)c1cc(CN)c(C(=O)O)o1`: > 4 mM (inactive); `Cc1cc([N+](=O)[O-])cc[n+]1[O-]`: > 4 mM (inactive). The same measure, in the same setting: next, `Cc1nn(-c2ccccc2)nc1CO`: > 4 mM (inactive); `OCc1cccc2c1OCCO2`: > 4 mM (inactive). In the case of `Cn1nc(C(=O)N2CCOCC2)c2ccccc2c1=O`, the Kd is > 4 mM (inactive). On the same count and under the same terms, next, `Cc1cc(N)n(-c2ccccc2)n1`: > 4 mM (inactive); `O=C(O)Cn1c(=O)sc2ccccc21`: > 4 mM (inactive); `CC1(C)Oc2ccc3ccc(=O)oc3c2CC1O` (stereo unspecified): > 4 mM (inactive). Still for that read-out and setting: next, `Cc1cc(OCC(=O)N2CCOCC2)ccc1C(C)C`: “inactive”; `NCc1ccc(-c2cccs2)cc1`: > 4 mM (inactive); `O=C(O)c1ccc(-c2cccs2)cc1`: > 4 mM (inactive).

In the case of `CC(C)(C)c1cc(NC(=O)c2cccnc2)no1`, the Kd is > 4 mM (inactive).

With `O=C1Nc2ccccc2C1(O)Cc1ccncc1` (stereo unspecified), the Kd is > 4 mM (inactive). Still for that read-out and setting: the result for `O=C(Nc1ccc(Cl)cc1)N1CCCC1` reads “inactive”; that for `O=C1NC(=S)N/C1=C/c1ccc(O)c(Cl)c1`, > 4 mM (inactive); that for `Nc1ncnc(NCc2cccnc2)c1[N+](=O)[O-]`, > 4 mM (inactive). On the same count and under the same terms, the result for `O=C(O)C1CC(=O)N(C2Cc3ccccc3C2)C1` (stereo unspecified) reads > 4 mM (inactive); that for `O=C(Nc1ncccn1)c1cccc(F)c1`, > 4 mM (inactive).

For `Cc1ccc(C(=O)NCCO)c(Cl)c1`, the Kd was > 4 mM (inactive).

For `NC(N)=NCCCCN=C(N)N`, the Kd was > 4 mM (inactive). The same measure, in the same setting: next, `CC[C@H]1CN2CCC1C[C@@H]2[C@@H](O)c1ccnc2ccc(OC)cc12` (stereo partly specified): > 4 mM (inactive); `Cn1cnc2ccc([N+](=O)[O-])cc2c1=O`: > 4 mM (inactive); `Cc1cc(=O)cc(C)n1-c1ccccc1N1CCOCC1`: > 4 mM (inactive). As for `CC1(C)NC(=O)N(CN2CCOCC2)C1=O`, the Kd was > 4 mM (inactive). The same measure, in the same setting: the result for `CS(=O)(=O)N1CCN(C(=O)c2ccccc2)C1` reads > 4 mM (inactive).

For the compound `CC(=O)c1cc2c(s1)SCC(=O)N2`, the Kd was > 4 mM (inactive).

With `COc1ccc2c(c1)OCC(Cc1ccc(OC)c(O)c1)C2=O` (stereo unspecified), the Kd was > 4 mM (inactive).

For `CC(=O)Nc1ccc2c(c1)CCC2=O`, the Kd is > 4 mM (inactive). On the same count and under the same terms, next, `CC1=CC(C)C(C(=O)O)C(C(=O)N2CCN(C)CC2)C1` (stereo unspecified): > 4 mM (inactive); `Cc1cccc(N2C(=O)CCC2=O)n1`: > 4 mM (inactive); `CSc1nnc2c(n1)OC(C)=Nc1ccccc1-2`: > 4 mM (inactive).

As to `Cc1cc(C(=O)NCc2cccs2)cs1`, the Kd is > 4 mM (inactive). On the same count and under the same terms, next, `COc1ccc(-c2cc(=O)c3cc(OC)ccc3o2)cc1`: > 4 mM (inactive); `COC(=O)c1noc(C)c1C(C)=O`: > 4 mM (inactive); `O=S1(=O)CCC(NCc2ccccc2)C1` (stereo unspecified): > 4 mM (inactive). Still for that read-out and setting: next, `COc1cc([C@@H]2c3cc4c(c(O)c3C[C@H]3COC(=O)[C@@H]32)OCO4)cc(OC)c1OC`: > 4 mM (inactive); `C#CCCCCCCCCCCCC(O)CC(O)COC(C)=O` (stereo unspecified): > 4 mM (inactive). `COc1ccc(S(=O)(=O)Nc2ccccn2)c(C)c1C`: the Kd was > 4 mM (inactive). The same measure, in the same setting: the result for `O=C(CCc1ccc(O)cc1)c1c(O)cc(O)cc1O[C@@H]1O[C@H](CO)[C@@H](O)[C@H](O)[C@H]1O` reads > 4 mM (inactive); that for `NC12CC3CC(C1)CC(CC(=O)O)(C3)C2`, > 4 mM (inactive).

With `CC1CCC2(OC1)OC1CC3C4CC[C@H]5C[C@@H](O)CC[C@]5(C)C4CC(=O)[C@]3(C)C1C2C` (stereo partly specified), the Kd was > 4 mM (inactive). On the same count and under the same terms, next, `CC(=O)c1cc(C(N)=O)c(=S)[nH]c1C`: > 4 mM (inactive); `COc1cccc(N2CCN(C(=O)c3cccnc3)CC2)c1`: > 4 mM (inactive); `O=C(c1ccco1)N1C(=O)c2cccc3cccc1c23`: > 4 mM (inactive).

In the case of `O=C1CSC(=O)N1c1cccc(O)c1`, the Kd is > 4 mM (inactive). `Cc1ccc(CCNc2ccccc2)c[n+]1[O-]`: the Kd was > 4 mM (inactive).

For the compound `Cc1ccc2cc(N)ccc2n1`, the Kd is > 4 mM (inactive). Same read-out and setting: next, `Cn1nnc2c(Cl)ncnc21`: > 4 mM (inactive). Turning to `CC1(C)C(=O)C=C[C@@]2(C)C1CC(=O)[C@]1(C)C2CC[C@@]2(C)[C@H](c3ccoc3)OC(=O)[C@H]3O[C@]321` (stereo partly specified), the Kd was > 4 mM (inactive).

`CC(C)=NNC(=O)C(=O)Nc1ccc(F)cc1`: the Kd was > 4 mM (inactive). On the same count and under the same terms, the result for `COc1cc(S(=O)(=O)N(C)C)ccc1F` reads > 4 mM (inactive); that for `c1ccc(-c2csc3ncn4nnnc4c23)cc1`, > 4 mM (inactive). On to `CCc1ccc(OCC(=O)N2CCOCC2)cc1`, for which the negative-log Kd (pKd) was 3.36. `O=C(Nc1cccnc1)c1cccs1`: the Kd was > 4 mM (inactive). On the same count and under the same terms, the result for `NC(=O)CSc1nc2ncnc(N)c2[nH]1` reads > 4 mM (inactive); that for `CCOC(=O)c1c(C)cc(O)cc1O`, > 4 mM (inactive); that for `Cc1cc(C(=O)N2CCN(c3ncccn3)CC2)c(C)o1`, > 4 mM (inactive). With `CC(=O)c1ccc(-n2ccnc2)cc1`, the Kd was > 4 mM (inactive).

As for `COc1cccc(Oc2ccc(N)cc2)c1`, the Kd was > 4 mM (inactive). The same measure, in the same setting: next, `C=CC(C)(O)CC/C=C(\C)CCC=C(C)C` (stereo unspecified): > 4 mM (inactive); `Nc1nncn1C(=O)c1ccccc1Cl`: > 4 mM (inactive).

`COc1cccc(NC(=O)c2nc3ncccn3n2)c1`: the Kd is > 4 mM (inactive).

Consider `COC(=O)C1Cc2ccccc2N1` (stereo unspecified), for which the Kd is > 4 mM (inactive). The same measure, in the same setting: the result for `O=[n+]1c2c(n([O-])c3ccccc31)CCCC2` reads > 4 mM (inactive); that for `COc1ccc(C(N)=O)cc1NC(C)=O`, > 4 mM (inactive); that for `CCCS(=O)(=O)N1CCN(c2ccccc2F)CC1`, > 4 mM (inactive).

Turning to `CC(C)=CCC1=C(O)c2ccccc2C(=O)C1=O`, the Kd is > 4 mM (inactive).

For `O=c1c(O)c(-c2ccccc2)oc2ccccc12`, the Kd was > 4 mM (inactive). The same measure, in the same setting: the result for `CC(=O)Oc1ccc2c(c1OC(C)=O)OCC1(O)Cc3c(cc(OC(C)=O)c(OC(C)=O)c3OC(C)=O)C21` (stereo unspecified) reads > 4 mM (inactive).

Take `CC(=O)c1cccc(NC(=O)C=C(C)C)c1`: the Kd is > 4 mM (inactive). Still for that read-out and setting: next, `c1ccc(-c2nsc(N3CCNCC3)n2)cc1`: > 4 mM (inactive); `O=C(Nc1ccc(N2CCCC2=O)cc1)c1cccc(F)c1`: > 4 mM (inactive); `Cc1cccn2cc(CNc3ccccc3)nc12`: > 4 mM (inactive). Same read-out and setting: next, `CCCNC(CC(=O)Nc1cccnc1)C(=O)O` (stereo unspecified): > 4 mM (inactive); `Cc1cc(N)n(C2CCOC(C)(C)C2)n1` (stereo unspecified): > 4 mM (inactive). Consider `O=c1[nH]nc(Cc2ccccn2)c2ccccc12`, for which the Kd is > 4 mM (inactive). The same measure, in the same setting: the result for `CC1=NN2C(=N)CC(=O)N=C2S1` reads > 4 mM (inactive).

For `CC(C)Nc1nc2n(c(=O)n1)CCN2C(C)C`, the Kd is > 4 mM (inactive).

Turning to `COC(=O)c1ccc2nccnc2c1`, the Kd is > 4 mM (inactive).

As to `Nc1nc(-c2ccc(F)c(F)c2)cs1`, the Kd is > 4 mM (inactive).

In the case of `COc1cc(OC)c(OC)cc1C=O`, the Kd is > 4 mM (inactive). As to `Cc1nc2c(n1O)CCc1c-2no[n+]1[O-]`, the Kd was > 4 mM (inactive). Still for that read-out and setting: the result for `CNC(=O)Oc1ccc2c(c1)[C@]1(C)CCN(C)[C@@H]1N2C` reads > 4 mM (inactive); that for `O=C(c1ncc[nH]1)c1ccccc1C(=O)N1CCOCC1`, > 4 mM (inactive). Turning to `C[n+]1ccc(C(=O)[O-])cc1`, the Kd was > 4 mM (inactive). For the compound `O=C(CSc1ncn[nH]1)c1ccc2c(c1)OCO2`, the Kd is > 4 mM (inactive). Still for that read-out and setting: the result for `O=C(Nc1cccc2cccnc12)c1cccnc1` reads > 4 mM (inactive); that for `CC(=O)Cc1nsc(NC(=O)c2ccc(C)cc2)n1`, > 4 mM (inactive); that for `CC(=O)c1ccc(NC(=O)c2ocnc2C)cc1`, > 4 mM (inactive). `c1cc(C(N2CCOCC2)N2CCOCC2)ccn1`: the Kd was > 4 mM (inactive).

With `COc1cccc(C(=O)Nc2c(C)n[nH]c2C)c1`, the Kd was > 4 mM (inactive). For the compound `O=C(Nn1cnnc1)c1cc2c(s1)CCCCC2`, the Kd is > 4 mM (inactive). Same read-out and setting: the result for `O=C(O)C1CNc2ccccc2O1` (stereo unspecified) reads > 4 mM (inactive).

Take `NS(=O)(=O)c1ccc(NC(=O)c2ccccc2F)cc1`: the Kd is > 4 mM (inactive).
